{
  "source": "patent US20250304990A1",
  "about": "“HERBICIDE RESISTANCE” (SYNGENTA CROP PROTECTION AG, priority 2021, published 2025)",
  "key": {"WT tobacco": {"tested_on": "WT tobacco", "assay": "Herbicide damage score after spraying, Example 3", "format": "in vivo", "conditions": "T1 B5u 500 gai/ha; WT tobacco control; per plant", "experimental": "(§1) In order to determine if the newly discovered mutations detailed in Example 1 confer resistance to HST inhibiting compounds when expressed in plants, GM tobacco lines are to be produced and tested with HST inhibiting compounds. Transgenic tobacco plants expressing the Arabidopsis HST gene with and without mutations were tested.\n(§2) Populations of transgenic tobacco comprising 20-30 transgenic events per plant transformation constructs were generated as described in Example 2. These lines were clonally propagated and 1 clone per event was sprayed with 500, 100 or 50 g ai/ha of compound 1+0.2% Genapol X080 with a spray volume of 200 L/Ha (“g ai/ha” refers to grams of active compound per hectare).\n(§3) Herbicidal damage was visually assessed across the population and a herbicide damage score given at 7 and 14 days. A score of 0 indicates no visible damage or stunting whereas a score of 100 indicates a complete death of the plant. 20 transgenic events (i.e. individual transgenic plants) from each GM tobacco line were transplanted to soil 1 week prior to spraying with HST inhibiting compounds. WT tobacco was included as a control.\n(§4) The values in Tables 8 to 14 below refer to percentage of damage to the tested plants and show the damage scores for 20 populations of plants expressing either Arabidopsis WT HST gene (SEQ ID NO. 14), the Arabidopsis HST mutated gene according to SEQ ID NO. 27, the Arabidopsis HST mutated gene according to SEQ ID NO. 28, the Arabidopsis HST mutated gene according to SEQ ID NO. 29, the Arabidopsis HST mutated gene according to SEQ ID NO. 30, or the Arabidopsis HST mutated gene according to SEQ ID NO. 31. A control population of wild-type Samsun tobacco was also assessed for herbicide damage. […] However the mutated versions of the HST gene carrying the F276I, V277A, F280I or F280L mutations (SEQ ID NOs: 27, 28, 30 or 31) clearly display increased tolerance."}, "[1]": {"tested_on": "D4293 (V277A mutant Arabidopsis thaliana HST) containing tobacco plant", "assay": "Herbicide damage score after spraying, Example 3", "format": "in vivo", "conditions": "T1 B5u 500 gai/ha, averaged across transgenic population", "experimental": "as §1, §2, §3, §4"}, "[2]": {"tested_on": "D4292 (F276I mutant Arabidopsis thaliana HST) containing tobacco plant", "assay": "Herbicide damage score after spraying, Example 3", "format": "in vivo", "conditions": "T1 B5u 500 gai/ha, averaged across transgenic population", "experimental": "as §1, §2, §3, §4"}, "[3]": {"tested_on": "D4295 (F280I mutant Arabidopsis thaliana HST) containing tobacco plant", "assay": "Herbicide damage score after spraying, Example 3", "format": "in vivo", "conditions": "T1 B5u 500 gai/ha, averaged across transgenic population", "experimental": "as §1, §2, §3, §4"}, "[4]": {"tested_on": "D4291 (WT Arabidopsis thaliana HST) containing tobacco plant", "assay": "Herbicide damage score after spraying, Example 3", "format": "in vivo", "experimental": "as §1, §2, §3, §4"}, "[5]": {"tested_on": "D4294 (T278N mutant Arabidopsis thaliana HST) containing tobacco plant", "assay": "Herbicide damage score after spraying, Example 3", "format": "in vivo", "conditions": "T1 B5u 500 gai/ha; D4294 T278N; averaged across transgenic population", "experimental": "as §1, §2, §3, §4"}, "Cf-496-2": {"tested_on": "Cf-496-2", "assay": "Dose response test, growth in 96-well plates", "format": "cell-based, Chlorella fusca", "conditions": "strain Cf-496-2; no growth, visual inspection"}, "Cf-496-75": {"tested_on": "Cf-496-75", "assay": "Dose response test, growth in 96-well plates", "format": "cell-based, Chlorella fusca", "conditions": "strain Cf-496-75; no growth, visual inspection"}, "Cf-496-90": {"tested_on": "Cf-496-90", "assay": "Dose response test, growth in 96-well plates", "format": "cell-based, Chlorella fusca", "conditions": "strain Cf-496-90; no growth, visual inspection", "experimental": "(§5) Dose response tests with B5U were set-up in 96-well, flat bottomed plates. 200 μl medium was used in each well. 2 μl of 6 day old culture was added to each well, then 2 μl of DMSO or dilution of test compound were added to respective wells. 2-fold dilutions starting at 100 ppm were used per well. Plates were incubated at 25° C., 50 μmol/m^2/s, 16 hour photoperiod.\n(§6) This was assessed by a visual inspection of growth in the 96-well plate. The inhibitor concentration at which no growth is observed is then defined as the LD."}, "Cf-496-85": {"tested_on": "Cf-496-85", "assay": "Dose response test, growth in 96-well plates", "format": "cell-based, Chlorella fusca", "conditions": "strain Cf-496-85; no growth, visual inspection", "experimental": "as §5, §6"}, "Cf-496-78": {"tested_on": "Cf-496-78", "assay": "Dose response test, growth in 96-well plates", "format": "cell-based, Chlorella fusca", "conditions": "strain Cf-496-78 (F275I); no growth, visual inspection", "experimental": "as §5, §6"}, "Cf-496-21": {"tested_on": "Cf-496-21", "assay": "Dose response test, growth in 96-well plates", "format": "cell-based, Chlorella fusca", "conditions": "strain Cf-496-21; no growth, visual inspection", "experimental": "as §5, §6"}, "Cf-496-54": {"tested_on": "Cf-496-54", "assay": "Dose response test, growth in 96-well plates", "format": "cell-based, Chlorella fusca", "conditions": "strain Cf-496-54; no growth, visual inspection", "experimental": "as §5, §6"}, "Cf-496-47": {"tested_on": "Cf-496-47", "assay": "Dose response test, growth in 96-well plates", "format": "cell-based, Chlorella fusca", "conditions": "strain Cf-496-47; no growth, visual inspection"}},
  "note": "Where “and” joins values, the source holds several entries; their conditions need not be identical. Equal entries are not always repeated.",
  "data": [
    {"smiles": "Cc1nn(C)c(=O)c(-c2c(F)ccc(Cl)c2CCc2ccc(C(F)(F)F)cc2)c1OC(=O)C(C)C", "note": "[B5u, [5-[3-chloro-6-fluoro-2-[2-[4-(trifluoromethyl)phenyl]ethyl]phenyl]-1,3-dimethyl-6-oxo-pyridazin-4-yl]2-methylpropanoate]", "values": [
      {"measurement": "percentage of damage", "setting": "WT tobacco", "value": "95% and 90%"},
      {"measurement": "Average percentage damage", "setting": "[1]", "value": 22, "unit": "%"},
      {"measurement": "Average percentage damage", "setting": "[2]", "value": 28, "unit": "%"},
      {"measurement": "Average percentage damage", "setting": "[3]", "value": 35, "unit": "%"},
      {"measurement": "Average percentage damage", "setting": "[4]; T1 B5u 500 gai/ha, D4291, mutation n.a., averaged across transgenic population", "value": 55, "unit": "%"},
      {"measurement": "tolerance to herbicide", "setting": "[4]; overexpression of Arabidopsis HST gene (SEQ ID NO.14) in tobacco", "value": "does not increase tolerance"},
      {"measurement": "Average percentage damage", "setting": "[5]", "value": 76, "unit": "%"},
      {"measurement": "LD (lethal dose)", "setting": "Cf-496-2", "value": 6.25, "unit": "ppm"},
      {"measurement": "LD (lethal dose)", "setting": "Cf-496-75", "value": 6.25, "unit": "ppm"},
      {"measurement": "LD (lethal dose)", "setting": "Cf-496-90", "value": ">100", "unit": "ppm"},
      {"measurement": "LD (lethal dose)", "setting": "Cf-496-85", "value": ">100", "unit": "ppm"},
      {"measurement": "LD (lethal dose)", "setting": "Cf-496-78", "value": ">100", "unit": "ppm"},
      {"measurement": "LD (lethal dose)", "setting": "Cf-496-21", "value": ">100", "unit": "ppm"},
      {"measurement": "LD (lethal dose)", "setting": "Cf-496-54", "value": ">100", "unit": "ppm"},
      {"measurement": "LD (lethal dose)", "setting": "Cf-496-47", "value": ">100", "unit": "ppm"}
    ]}
  ]
}
